Results on 32 compounds are retold here after patent US20240150303A1, “DIAMINOTRIAZINE COMPOUNDS” (BASF SE, priority 2021, published 2024).

What all share (experiment): greenhouse pre-emergence herbicidal test
Type in all cases: in vivo

One experiment deals with Amaranthus retroflexus. From the text: (§1) The seeds of the test plants were sown separately for each species. For the pre-emergence treatment, the active ingredients, which had been suspended or emulsified in water, were applied directly after sowing by means of finely distributing nozzles. The containers were irrigated gently to promote germination and growth and subsequently covered with transparent plastic hoods until the plants had rooted. This cover caused uniform germination of the test plants, unless this had been impaired by the active ingredients. […] The test period extended over 2 to 4 weeks. During this time, the plants were tended, and their response to the individual treatments was evaluated. Evaluation was carried out using a scale from 0 to 100. 100 means no emergence of the plants, or complete destruction of at least the aerial moieties, and 0 means no damage, or normal course of growth. A moderate herbicidal activity is given at values of at least 60, a good herbicidal activity is given at values of at least 70, and a very good herbicidal activity is given at values of at least 85. The plants used in the greenhouse experiments were of the following species: [table]

A further experiment deals with Echinocloa crus-galli.
From the text: as §1

In another experiment the test system is Setaria faberi.
From the text: as §1

In the next experiment the test system is Abutilon theophrasti. From the text:
The culture containers used were plastic flowerpots containing loamy sand with approximately 3.0% of humus as the substrate. The seeds of the test plants were sown separately for each species.
For the pre-emergence treatment, the active ingredients, which had been suspended or emulsified in water, were applied directly after sowing by means of finely distributing nozzles.
The containers were irrigated gently to promote germination and growth and subsequently covered with transparent plastic hoods until the plants had rooted. This cover caused uniform germination of the test plants, unless this had been impaired by the active ingredients.
Depending on the species, the plants were kept at 10-25° C. or 20-35° C., respectively.
The test period extended over 2 to 4 weeks. During this time, the plants were tended, and their response to the individual treatments was evaluated.
Evaluation was carried out using a scale from 0 to 100. 100 means no emergence of the plants, or complete destruction of at least the aerial moieties, and 0 means no damage, or normal course of growth. A moderate herbicidal activity is given at values of at least 60, a good herbicidal activity is given at values of at least 70, and a very good herbicidal activity is given at values of at least 85.
The plants used in the greenhouse experiments were of the following species: […]

Several values for one entry are separate records, joined by “and”; a condition that tells them apart may be missing. Identical values can stand only once.

As to `CC(C)(F)c1nc(N)nc(Nc2c(Cl)c(F)cc(F)c2OCC#CC2CC2)n1` [Example 27], the herbicidal activity in the experiment with Amaranthus retroflexus (31 g/ha), in the experiment on Amaranthus retroflexus (62 g/ha), in the experiment on Echinocloa crus-galli (62 g/ha), in the experiment on Setaria faberi (31 g/ha) and with Setaria faberi (62 g/ha) was 100% each time.
`COc1c(Br)cc(F)c(Cl)c1Nc1nc(N)nc(C2(F)CC2)n1` [Example 42]: the herbicidal activity in the experiment with Amaranthus retroflexus (31 g/ha), in the experiment on Echinocloa crus-galli (31 g/ha) and in the experiment on Setaria faberi (31 g/ha) was 100% throughout.
For `C#CCOc1c(F)cc(F)c(Cl)c1Nc1nc(N)nc(C(C)(C)F)n1` [Example 28], the herbicidal activity in the experiment with Amaranthus retroflexus (62 g/ha), in the experiment with Amaranthus retroflexus (62.5 g/ha), in the experiment on Echinocloa crus-galli (62 g/ha), in the experiment on Echinocloa crus-galli (62.5 g/ha), in the experiment on Setaria faberi (62 g/ha) and in the experiment on Setaria faberi (62.5 g/ha) was 100% in each case.
With `COc1c(Cl)ccc(Cl)c1Nc1nc(N)nc(C(C)(F)F)n1` [Example 72], the herbicidal activity was 100% with Amaranthus retroflexus (62 g/ha); 100% in the experiment with Echinocloa crus-galli (62 g/ha); 80% and 100% in the experiment on Setaria faberi (62 g/ha).
For the compound `CC#CCOc1c(Br)cc(C)c(Cl)c1Nc1nc(N)nc(C(C)(C)F)n1` [Example 82], the herbicidal activity with Amaranthus retroflexus (62 g/ha), with Echinocloa crus-galli (62 g/ha) and with Setaria faberi (62 g/ha) was 100% in each case.
Regarding `Cc1c(Br)cc(F)c(OCc2ccccc2)c1Nc1nc(N)nc(C(C)(C)F)n1` [Example 6], the herbicidal activity in the experiment on Echinocloa crus-galli (125 g/ha) is reported as 100%; in the experiment on Echinocloa crus-galli (250 g/ha) it was 85%; in the experiment with Setaria faberi (125 g/ha), 100%; in the experiment on Setaria faberi (250 g/ha), 100%; in the experiment with Abutilon theophrasti (125 g/ha), 100%; in the experiment with Abutilon theophrasti (250 g/ha), 100%.
As to `COc1c(Br)cc(C)c(Cl)c1Nc1nc(N)nc(C(C)(C)F)n1` [Example 83], the herbicidal activity in the experiment on Amaranthus retroflexus (62 g/ha), in the experiment with Echinocloa crus-galli (62 g/ha) and in the experiment with Setaria faberi (62 g/ha) was 100% in each case.
Regarding `COc1c(F)ccc(Cl)c1Nc1nc(N)nc(C(C)(C)F)n1` [Example 49], the herbicidal activity in the experiment with Amaranthus retroflexus (62 g/ha), in the experiment on Amaranthus retroflexus (62.5 g/ha), with Echinocloa crus-galli (62 g/ha), with Echinocloa crus-galli (62.5 g/ha), with Abutilon theophrasti (62 g/ha) and in the experiment on Abutilon theophrasti (62.5 g/ha) was 100% throughout.
Regarding `CCOc1c(Br)cc(F)c(C)c1Nc1nc(N)nc(C(C)(C)F)n1` [Example 23], the herbicidal activity in the experiment with Amaranthus retroflexus (62 g/ha), with Amaranthus retroflexus (62.5 g/ha), in the experiment with Echinocloa crus-galli (62 g/ha), in the experiment with Echinocloa crus-galli (62.5 g/ha), in the experiment with Setaria faberi (62 g/ha) and with Setaria faberi (62.5 g/ha) was 100% throughout.
Consider `COc1c(Br)cc(F)c(C)c1Nc1nc(N)nc(C(C)F)n1` (stereo not shown) [Example 74], for which the herbicidal activity in the experiment with Amaranthus retroflexus (62 g/ha), with Echinocloa crus-galli (62 g/ha) and with Setaria faberi (62 g/ha) was 100% throughout.
As to `COc1c(F)ccc(Cl)c1Nc1nc(N)nc(C(C)(F)F)n1` [Example 85], the herbicidal activity in the experiment on Echinocloa crus-galli (62 g/ha) amounted to 100%; with Setaria faberi (62 g/ha), 98%; with Abutilon theophrasti (62 g/ha), 85%.
With `COc1c(F)ccc(Cl)c1Nc1nc(N)nc(C(C)(F)CBr)n1` (stereo not shown) [Example 86], the herbicidal activity in the experiment on Amaranthus retroflexus (62 g/ha), in the experiment on Echinocloa crus-galli (62 g/ha) and in the experiment on Setaria faberi (62 g/ha) was 100% throughout.
Turning to `COc1c(C)ccc(C)c1Nc1nc(N)nc(C(C)F)n1` (stereo not shown) [Example 18], the herbicidal activity in the experiment on Amaranthus retroflexus (62.5 g/ha), in the experiment on Amaranthus retroflexus (250 g/ha), with Echinocloa crus-galli (62.5 g/ha), with Echinocloa crus-galli (250 g/ha), in the experiment on Abutilon theophrasti (62.5 g/ha) and with Abutilon theophrasti (250 g/ha) was 100% in each case.
Turning to `CC#CCOc1c(Cl)cc(C)c(Cl)c1Nc1nc(N)nc(C(C)(C)F)n1` [Example 65], the herbicidal activity in the experiment on Echinocloa crus-galli (62 g/ha), in the experiment with Setaria faberi (62 g/ha) and with Abutilon theophrasti (62 g/ha) was 100% each time.
With `C#CCOc1c(F)cc(C)c(Cl)c1Nc1nc(N)nc(C(C)(C)F)n1` [Example 56], the herbicidal activity with Echinocloa crus-galli (62 g/ha) is given as 100%; with Echinocloa crus-galli (62.5 g/ha), 90%; in the experiment on Setaria faberi (62 g/ha), 100%; in the experiment with Setaria faberi (62.5 g/ha), 100%; in the experiment with Abutilon theophrasti (62 g/ha) it was 100%; with Abutilon theophrasti (62.5 g/ha) it was 90%.
On to `CC#CCOc1c(F)ccc(Cl)c1Nc1nc(N)nc(C(F)C(C)C)n1` (stereo not shown) [Example 89], for which the herbicidal activity with Amaranthus retroflexus (62 g/ha), in the experiment on Echinocloa crus-galli (62 g/ha) and in the experiment with Setaria faberi (62 g/ha) was 100% in each case.
Consider `COc1c(Br)cc(F)c(C)c1Nc1nc(N)nc(C(C)(F)CBr)n1` (stereo not shown) [Example 76], for which the herbicidal activity with Amaranthus retroflexus (62 g/ha), in the experiment with Echinocloa crus-galli (62 g/ha) and in the experiment with Setaria faberi (62 g/ha) was 100% in each case.
On to `CC#CCOc1c(F)cc(F)c(Cl)c1Nc1nc(N)nc(C(C)(C)F)n1` [Example 25], for which the herbicidal activity with Amaranthus retroflexus (62 g/ha), in the experiment with Amaranthus retroflexus (250 g/ha), with Echinocloa crus-galli (62 g/ha), with Echinocloa crus-galli (250 g/ha), in the experiment with Setaria faberi (62 g/ha) and with Setaria faberi (250 g/ha) was 100% each time.
Consider `COc1c(Br)cc(F)c(C)c1Nc1nc(N)nc(C(C)(C)F)n1` [Example 80], for which the herbicidal activity in the experiment on Amaranthus retroflexus (62 g/ha), in the experiment on Echinocloa crus-galli (62 g/ha) and in the experiment on Setaria faberi (62 g/ha) was 100% each time.
Regarding `COc1c(Br)cc(F)c(C)c1Nc1nc(N)nc(C2(F)CCCC2)n1` [Example 78], the herbicidal activity with Amaranthus retroflexus (62 g/ha), in the experiment with Echinocloa crus-galli (62 g/ha) and in the experiment with Setaria faberi (62 g/ha) was 100% throughout.
In the case of `CCC(C)(F)c1nc(N)nc(Nc2c(C)c(F)cc(Cl)c2OC)n1` (stereo not shown) [Example 81], the herbicidal activity in the experiment on Echinocloa crus-galli (62 g/ha), with Setaria faberi (62 g/ha) and in the experiment with Abutilon theophrasti (62 g/ha) was 100% each time.
Take `COc1c(Br)cc(F)c(C)c1Nc1nc(N)nc(C(C)(F)CCl)n1` (stereo not shown) [Example 75]: the herbicidal activity in the experiment on Amaranthus retroflexus (62 g/ha), with Echinocloa crus-galli (62 g/ha) and with Setaria faberi (62 g/ha) was 100% throughout.
Consider `COc1c(F)ccc(Cl)c1Nc1nc(N)nc(C(C)(C)OC)n1` [Example 87], for which the herbicidal activity with Amaranthus retroflexus (62 g/ha), in the experiment on Echinocloa crus-galli (62 g/ha) and in the experiment on Setaria faberi (62 g/ha) was 100% throughout.
With `CC#CCOc1c(F)ccc(Cl)c1Nc1nc(N)nc(C(C)(F)CBr)n1` (stereo not shown) [Example 91], the herbicidal activity in the experiment with Amaranthus retroflexus (62 g/ha), in the experiment with Echinocloa crus-galli (62 g/ha) and in the experiment with Setaria faberi (62 g/ha) was 100% in each case.
As to `COc1c(Cl)cc(F)c(C)c1Nc1nc(N)nc(C2(F)CCCC2)n1` [Example 73], the herbicidal activity with Amaranthus retroflexus (62 g/ha), with Echinocloa crus-galli (62 g/ha) and with Setaria faberi (62 g/ha) was 100% each time.
As to `COc1c(Br)cc(F)c(C)c1Nc1nc(N)nc(C(C)(F)F)n1` [Example 77], the herbicidal activity with Amaranthus retroflexus (62 g/ha), with Echinocloa crus-galli (62 g/ha) and with Setaria faberi (62 g/ha) was 100% each time.
For the compound `CC#CCOc1c(F)ccc(Cl)c1Nc1nc(N)nc(C(C)(C)OC)n1` [Example 90], the herbicidal activity with Amaranthus retroflexus (62 g/ha), in the experiment on Echinocloa crus-galli (62 g/ha) and in the experiment with Setaria faberi (62 g/ha) was 100% each time.
Regarding `COc1c(Br)cc(Cl)c(C)c1Nc1nc(N)nc(C(C)F)n1` (racemic) [Example 96], the herbicidal activity in the experiment with Echinocloa crus-galli (62 g/ha) turned out to be 70%; in the experiment with Setaria faberi (62 g/ha) it was 75%.
`CC#CCOc1c(F)ccc(Cl)c1Nc1nc(N)nc(C(C)(F)F)n1` [Example 88]: the herbicidal activity with Amaranthus retroflexus (62 g/ha), in the experiment with Echinocloa crus-galli (62 g/ha) and in the experiment with Setaria faberi (62 g/ha) was 100% throughout.
Consider `Nc1nc(Nc2c(Cl)cccc2OC(F)F)nc(C2(F)CCCC2)n1` [Example 94], for which the herbicidal activity in the experiment on Amaranthus retroflexus (62 g/ha), in the experiment on Echinocloa crus-galli (62 g/ha) and in the experiment on Setaria faberi (62 g/ha) was 100% in each case.
On to `C#CCOc1c(Br)cc(F)c(C)c1Nc1nc(N)nc(C(C)(C)F)n1` [Example 22], for which the herbicidal activity in the experiment on Amaranthus retroflexus (62 g/ha) is 100%; in the experiment on Amaranthus retroflexus (62.5 g/ha) it was 85%; in the experiment with Echinocloa crus-galli (62 g/ha), 100%; in the experiment on Echinocloa crus-galli (62.5 g/ha) it was 85%; in the experiment on Setaria faberi (62 g/ha) it was 100%; in the experiment on Setaria faberi (62.5 g/ha), 100%.
For the compound `CCC#CCOc1c(F)cc(F)c(Cl)c1Nc1nc(N)nc(C(C)(C)F)n1` [Example 26], the herbicidal activity in the experiment with Amaranthus retroflexus (62 g/ha), with Amaranthus retroflexus (250 g/ha), in the experiment with Echinocloa crus-galli (62 g/ha), with Echinocloa crus-galli (250 g/ha), with Setaria faberi (62 g/ha) and in the experiment on Setaria faberi (250 g/ha) was 100% in each case.
